Measured values as given in patent US9840627B2, “Application of camptothecin and derivatives thereof as antifouling agent” (priority 2013, dated 2017).
Where two headings read alike, the source gives them in different places.

What was measured:
Format in all cases: in vivo
[1] = test system: marine large fouling organisms; settings: for coverage ratio of fouling organisms (%, Mean ± SE): antifouling agent 20% by weight in paint, panels in sea area, Xiamen
Method: The panel test in natural sea area was carried out referring to the national standard GB/T5370-2007 “Method for testing antifouling panels in shallow submergence”. […] The tested panels were fixed in iron frames after the paints had dried, and they were hanged on the test buoyant rafts in the sea area near Dalipu Island in Xiamen in June, 2010. After the tested panels had been immersed in seawater up to 3, 6, 9 and 12 months, they were then photographed, and the coverage ratios of the fouling organisms in each coated sample areas were analyzed and counted. Herein, the coverage ratio of the fouling organisms is the ratio of surface area covered by marine large fouling organisms in the sample area divided by the whole surface area in the sample area (the same below), and the lower the value is, the higher the antifouling efficiency will be.

[2] = test system: larvas of Bugula neritina; assay: Inhibitory effect on the attachment of Bugula larvas; settings: 48 h, membrane filtrated seawater
Description: Bugulas are marine bryozoan and widespread in various sea areas in the world. They often attach to the surfaces of marine artificial facilities like mariculture netting, cages, vessels, buoys, etc., and they are important marine fouling organisms as well. Bugula neritina, also called multicellular Bugula, its adults were collected from the fish culture net bins in Western sea area of Xiamen and put into an aquarium filled with fresh seawater after back to the laboratory to induce the release of their swimming larvas. It is the attachment of their swimming larvas that causes the Bugulas to change from swimming life to attaching life. Thus, inhibition of the attachment of the swimming larvas can verify the antifouling activity of the compounds. CPT and 10-hydroxyl-CPT were dissolved in ethyl acetate respectively, and a series of concentration gradient were set according to the results of pre-experiment. 1 ml of each solution was taken to a petri dish respectively; 1 ml of ethyl acetate was taken to another blank petri dish serving as control group. After the solvents evaporated completely and the compounds were distributed evenly on the bottom surfaces and the side surfaces of the petri dishes, each petri dish was added with 10 ml of membrane filtrated seawater. […]

[3] = test system: Perna viridis; assay: Inhibitory effect on the attachment of mussels by produced byssal threads; settings: 24 h culture at room temperature
Description: Mussels are common bivalve in marine fouling biocenoses, widespread, and are one of the major target organisms in the study of marine antifouling technology. Mussels explore surfaces by their feet, looking for attachment substrate. If proper surfaces for attaching were found, mussels would produce byssal threads to attach to them. […] Perna viridis were collected from the fish net bins in offshore sea area of Zhangzhou, and in which those with shell length of 1.4˜2.4 cm were selected and washed with seawater, followed by gent cut-off of the byssal threads. And then the Perna viridis were washed with membrane filtrated seawater. CPT were first dissolved in a trace of dimethyl sulfoxide, and then mixed with membrane filtrated seawater to prepare a series of concentration gradient. 4 ml of each solution was taken into a 12-well plate, and each well was added with one Perna viridis. 4 ml of membrane filtrated seawater containing a trace of dimethyl sulfoxide and one Perna viridis were added into the control group. Each experimental group and control group had 8 paralleled groups. After 24-hours culture at room temperature, the amount of byssal threads produced by Perna viridis were observed, and the half inhibition concentration of CPT for the attachment of Perna viridis by produced byssal threads, EC50, were determined.

[4] = test system: cypris larvas of Balanus albicostatus; assay: Inhibitory effect on the attachment of barnacles (cypris larvas); settings: 48 h, membrane filtrated seawater
Description: Barnacles are sessile Cirripedia with calcareous shells and widespread. They firmly attach to the surfaces of vessels and various offshore artificial facilities, and are one of the major marine fouling organisms as well as one of the major target organisms in the study of antifouling technology. Adults of Balanus albicostatus were collected from the rocks and piers at Baicheng Coast in Xiamen, and their cypris larvas were obtained by culturing in laboratory. It is the attachment of the cypris larvas that causes the barnacles to change from swimming life to attaching life. Thus, inhibition of the attachment of the cypris larvas can verify the antifouling activity of the compounds. CPT and 10-hydroxyl-CPT were dissolved in ethyl acetate respectively, and a series of concentration gradient were set according to the results of pre-experiment. 1 ml of each solution was taken to a petri dish respectively, 1 ml of ethyl acetate was taken to another blank petri dish serving as control group. After the solvents evaporated completely and the compounds were distributed evenly on the bottom surfaces and the side surfaces of the petri dishes, each petri dish was added with 10 ml of membrane filtrated seawater (filtrated by membrane with pore size of 0.22 μm, the same below). […]

Compound | coverage ratio of fouling organisms (%, Mean ± SE) ([1]; after 3 months) | coverage ratio of fouling organisms (%, Mean ± SE) ([1]; after 6 months) | coverage ratio of fouling organisms (%, Mean ± SE) ([1]; after 9 months) | coverage ratio of fouling organisms (%, Mean ± SE) ([1]; after 12 months) | antifouling term ([1]; paints prepared with CPT as antifouling agent, panel test in sea area) | EC50 for the attachment of larvas of Bugula neritina [2] | EC50 for the attachment of Perna viridis by produced byssal threads [3] | half inhibition concentration (EC50) for the attachment of cypris larvas of Balanus albicostatus [4]
[Cu].[O]=[Cu] [Cu2O, cuprous oxide, reference compound] | 7.23 ± 2.02% | 91.75 ± 2.90% | 70.91 ± 13.40% | 98.88 ± 0.48% |  |  |  | 
CC[C@@]1(O)C(=O)OCc2c1cc1n(c2=O)Cc2cc3ccccc3nc2-1 [CPT, Camptothecin (CPT)] | 0.15 ± 0.12% | 11.6 ± 6.68% | 9.03 ± 2.64% | 39.67 ± 10.43% | up to 12 months | 15.02 µg/mL | 10.78 µg/mL | 1.73 µg/mL
CC[C@@]1(O)C(=O)OCc2c1cc1n(c2=O)Cc2cc3cc(O)ccc3nc2-1 [10-hydroxyl-CPT] |  |  |  |  |  | 5.93 µg/mL |  | 1.78 µg/mL
